Test results from patent US20240246942A1, “KINASE INHIBITORS FOR THE TREATMENT OF NEURODEGENERATIVE DISEASES” (priority 2020, published 2024).
Where two headings read alike, the source gives them in different places.

Assays:
CYP1A2 = molecular target: T1, CYP1A2 (Homo sapiens, UniProt P05177); test: P450 cocktail inhibition assay, CYP1A2; type: in vitro ADME; conditions: at 10 μM
T1 sequence (P05177 1-516): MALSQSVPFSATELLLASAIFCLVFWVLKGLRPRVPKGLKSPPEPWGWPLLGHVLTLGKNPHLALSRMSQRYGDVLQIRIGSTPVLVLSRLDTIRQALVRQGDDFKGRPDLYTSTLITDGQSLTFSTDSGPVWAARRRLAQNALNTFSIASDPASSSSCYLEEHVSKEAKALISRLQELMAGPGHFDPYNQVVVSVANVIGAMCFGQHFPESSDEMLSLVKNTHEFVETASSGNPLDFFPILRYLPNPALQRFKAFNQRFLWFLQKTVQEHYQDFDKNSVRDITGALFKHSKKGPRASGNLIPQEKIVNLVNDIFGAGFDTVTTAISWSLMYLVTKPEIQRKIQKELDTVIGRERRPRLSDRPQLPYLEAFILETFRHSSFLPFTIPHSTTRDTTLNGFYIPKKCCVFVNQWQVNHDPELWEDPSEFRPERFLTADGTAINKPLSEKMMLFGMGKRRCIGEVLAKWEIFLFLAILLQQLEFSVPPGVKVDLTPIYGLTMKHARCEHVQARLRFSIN
Description: (§1) P450s inhibition for four major isoforms are evaluated using a cocktail inhibition assay where the metabolism of specific marker substrate (CYP1A2 phenaceten […] to acetaminophen); CYP2C9, tolbutamide hydroxylation to hydrocytolbutamide; CYP2D6, bufuralol hydroxylation to […]; and CYP3A4, midazolam hydroxylation to 1′-Hydroxymidazolam) in the presence or absence of 10 TM probe compound is evaluated. The concentration of each marker substrate is approximately its Km. […] Specific inhibitors for each isoform are included in each run to validate the system.

SHSY5Y cells = test: MTT cytotoxicity assay; type: cell-based; design: dose or concentration left out as unconfirmed; conditions: 48 hrs, average of ≥2 experiments;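 also: compounds tested at 10 µM final concentration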
Description: A day before the assay, cells were plated at 50,000/well in 96 well plates in the culture medium. […] After the incubation, cells were subjected to MTT assay using Vybrant MTT Cell Proliferation kit as directed by the vendor (Life Technologies).

[1] = molecular target: T2, panel of 374 wild-type kinases (Homo sapiens, UniProt Q96SB4); test: biochemical; conditions: read-out: % Enzyme Activity (relative to DMSO controls), kinase SRPK1
T2 construct: purchased Reaction Biology Corporation

[2] = molecular target: T3, panel of 374 wild-type kinases (Homo sapiens, UniProt P29597); test: biochemical; conditions: read-out: % Enzyme Activity (relative to DMSO controls), kinase TYK2
T3 construct: purchased Reaction Biology Corporation

[3] = molecular target: T4, panel of 374 wild-type kinases (Homo sapiens, UniProt Q16512); test: biochemical; conditions: read-out: % Enzyme Activity (relative to DMSO controls), kinase PKN1/PRK1
T4 construct: purchased Reaction Biology Corporation

[4] = molecular target: T5, panel of 374 wild-type kinases (Homo sapiens, UniProt Q13153); test: biochemical; conditions: read-out: % Enzyme Activity (relative to DMSO controls), kinase PAK1
T5 construct: purchased Reaction Biology Corporation

[5] = molecular target: T6, panel of 374 wild-type kinases (Homo sapiens, UniProt O96013); test: biochemical; conditions: read-out: % Enzyme Activity (relative to DMSO controls), kinase PAK4
T6 construct: purchased Reaction Biology Corporation

[6] = molecular target: T7, panel of 374 wild-type kinases (Homo sapiens, UniProt Q8TF76); test: biochemical; conditions: read-out: % Enzyme Activity (relative to DMSO controls), Haspin
T7 construct: purchased Reaction Biology Corporation
T7 sequence (Q8TF76 1-798): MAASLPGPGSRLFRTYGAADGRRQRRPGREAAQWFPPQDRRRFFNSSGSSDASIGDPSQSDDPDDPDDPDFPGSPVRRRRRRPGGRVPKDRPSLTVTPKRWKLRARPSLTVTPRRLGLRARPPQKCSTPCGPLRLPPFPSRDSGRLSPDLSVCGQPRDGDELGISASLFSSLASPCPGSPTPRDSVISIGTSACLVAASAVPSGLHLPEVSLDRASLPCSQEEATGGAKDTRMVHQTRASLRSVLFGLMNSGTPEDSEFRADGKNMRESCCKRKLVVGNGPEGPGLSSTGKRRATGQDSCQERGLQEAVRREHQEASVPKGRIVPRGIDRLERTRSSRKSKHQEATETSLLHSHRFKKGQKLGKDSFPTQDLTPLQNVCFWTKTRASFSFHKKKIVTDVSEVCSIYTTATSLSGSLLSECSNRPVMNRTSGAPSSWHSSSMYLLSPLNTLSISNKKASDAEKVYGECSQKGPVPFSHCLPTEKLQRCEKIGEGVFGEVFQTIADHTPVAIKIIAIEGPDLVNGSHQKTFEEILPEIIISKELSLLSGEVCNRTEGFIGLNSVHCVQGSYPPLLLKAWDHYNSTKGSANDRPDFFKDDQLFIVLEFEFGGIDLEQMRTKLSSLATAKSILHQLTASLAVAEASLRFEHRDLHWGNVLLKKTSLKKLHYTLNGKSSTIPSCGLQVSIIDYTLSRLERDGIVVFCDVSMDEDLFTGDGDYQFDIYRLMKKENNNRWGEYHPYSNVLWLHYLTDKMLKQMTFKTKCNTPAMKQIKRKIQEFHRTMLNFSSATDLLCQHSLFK

[7] = molecular target: T8, panel of 374 wild-type kinases (Homo sapiens, UniProt Q00535); test: biochemical
T8 construct: purchased Reaction Biology Corporation

[8] = molecular target: T9, panel of 374 wild-type kinases (Homo sapiens, UniProt P43405); test: biochemical; conditions: read-out: % Enzyme Activity (relative to DMSO controls), kinase SYK
T9 construct: purchased Reaction Biology Corporation

[9] = Microsomal stability, mouse; type: in vitro ADME; conditions: mouse microsomes
[10] = Microsomal stability, human; type: in vitro ADME; conditions: human microsomes
CYP2C9 = CYP2C9 (Homo sapiens, UniProt P11712); test: P450 cocktail inhibition assay, CYP2C9; type: in vitro ADME; conditions: at 10 μM
Description: as §1

CYP3A4 = CYP3A4 (Homo sapiens, UniProt P08684); test: P450 cocktail inhibition assay, CYP3A4; type: in vitro ADME; conditions: at 10 μM
Description: as §1

CYP2D6 = CYP2D6 (Homo sapiens, UniProt P10635); test: P450 cocktail inhibition assay, CYP2D6; type: in vitro ADME; conditions: at 10 μM
Description: as §1

[11] = read-out: % Enzyme Activity (relative to DMSO controls), CDK5/P25
[12] = read-out: % Enzyme Activity (relative to DMSO controls), CDK5/p35

T8 sequence (Q00535 whole entry): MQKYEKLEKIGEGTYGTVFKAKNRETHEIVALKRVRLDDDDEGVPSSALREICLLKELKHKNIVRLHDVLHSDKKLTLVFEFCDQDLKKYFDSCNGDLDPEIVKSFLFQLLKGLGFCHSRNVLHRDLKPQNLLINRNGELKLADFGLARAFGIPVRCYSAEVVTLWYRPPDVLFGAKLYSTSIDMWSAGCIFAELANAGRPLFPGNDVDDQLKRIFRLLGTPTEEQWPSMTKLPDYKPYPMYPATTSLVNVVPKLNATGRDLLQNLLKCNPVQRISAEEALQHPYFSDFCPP
T2 sequence (Q96SB4 whole entry): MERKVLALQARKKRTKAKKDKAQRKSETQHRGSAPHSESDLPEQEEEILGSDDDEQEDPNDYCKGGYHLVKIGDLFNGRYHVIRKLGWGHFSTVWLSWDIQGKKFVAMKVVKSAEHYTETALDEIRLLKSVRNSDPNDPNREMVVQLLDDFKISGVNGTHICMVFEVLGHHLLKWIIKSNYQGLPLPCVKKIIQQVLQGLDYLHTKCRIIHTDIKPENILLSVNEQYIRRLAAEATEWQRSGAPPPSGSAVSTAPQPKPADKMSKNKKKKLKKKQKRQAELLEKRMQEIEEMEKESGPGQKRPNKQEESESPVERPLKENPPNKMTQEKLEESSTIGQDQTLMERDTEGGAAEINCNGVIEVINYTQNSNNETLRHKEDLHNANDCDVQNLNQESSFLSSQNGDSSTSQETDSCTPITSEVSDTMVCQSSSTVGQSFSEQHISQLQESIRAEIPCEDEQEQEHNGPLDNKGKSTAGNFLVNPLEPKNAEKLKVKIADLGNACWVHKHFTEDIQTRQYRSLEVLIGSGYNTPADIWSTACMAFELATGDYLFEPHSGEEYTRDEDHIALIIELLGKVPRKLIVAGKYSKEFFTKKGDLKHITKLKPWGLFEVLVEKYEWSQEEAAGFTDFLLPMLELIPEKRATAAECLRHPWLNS
Sequence of CYP3A4 (P08684 whole entry): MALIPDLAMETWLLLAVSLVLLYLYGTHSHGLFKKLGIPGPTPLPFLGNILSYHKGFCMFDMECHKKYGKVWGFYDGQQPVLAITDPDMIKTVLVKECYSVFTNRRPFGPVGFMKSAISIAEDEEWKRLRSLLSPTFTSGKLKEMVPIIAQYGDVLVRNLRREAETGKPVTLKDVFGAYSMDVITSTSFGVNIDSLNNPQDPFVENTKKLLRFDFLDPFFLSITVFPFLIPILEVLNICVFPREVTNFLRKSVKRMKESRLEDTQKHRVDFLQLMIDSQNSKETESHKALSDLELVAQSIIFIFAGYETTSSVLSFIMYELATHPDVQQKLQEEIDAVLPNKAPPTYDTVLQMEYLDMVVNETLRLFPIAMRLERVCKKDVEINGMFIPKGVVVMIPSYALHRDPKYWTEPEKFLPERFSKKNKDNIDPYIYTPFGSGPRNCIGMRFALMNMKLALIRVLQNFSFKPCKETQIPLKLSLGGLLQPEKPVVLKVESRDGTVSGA
T4 sequence (Q16512 whole entry): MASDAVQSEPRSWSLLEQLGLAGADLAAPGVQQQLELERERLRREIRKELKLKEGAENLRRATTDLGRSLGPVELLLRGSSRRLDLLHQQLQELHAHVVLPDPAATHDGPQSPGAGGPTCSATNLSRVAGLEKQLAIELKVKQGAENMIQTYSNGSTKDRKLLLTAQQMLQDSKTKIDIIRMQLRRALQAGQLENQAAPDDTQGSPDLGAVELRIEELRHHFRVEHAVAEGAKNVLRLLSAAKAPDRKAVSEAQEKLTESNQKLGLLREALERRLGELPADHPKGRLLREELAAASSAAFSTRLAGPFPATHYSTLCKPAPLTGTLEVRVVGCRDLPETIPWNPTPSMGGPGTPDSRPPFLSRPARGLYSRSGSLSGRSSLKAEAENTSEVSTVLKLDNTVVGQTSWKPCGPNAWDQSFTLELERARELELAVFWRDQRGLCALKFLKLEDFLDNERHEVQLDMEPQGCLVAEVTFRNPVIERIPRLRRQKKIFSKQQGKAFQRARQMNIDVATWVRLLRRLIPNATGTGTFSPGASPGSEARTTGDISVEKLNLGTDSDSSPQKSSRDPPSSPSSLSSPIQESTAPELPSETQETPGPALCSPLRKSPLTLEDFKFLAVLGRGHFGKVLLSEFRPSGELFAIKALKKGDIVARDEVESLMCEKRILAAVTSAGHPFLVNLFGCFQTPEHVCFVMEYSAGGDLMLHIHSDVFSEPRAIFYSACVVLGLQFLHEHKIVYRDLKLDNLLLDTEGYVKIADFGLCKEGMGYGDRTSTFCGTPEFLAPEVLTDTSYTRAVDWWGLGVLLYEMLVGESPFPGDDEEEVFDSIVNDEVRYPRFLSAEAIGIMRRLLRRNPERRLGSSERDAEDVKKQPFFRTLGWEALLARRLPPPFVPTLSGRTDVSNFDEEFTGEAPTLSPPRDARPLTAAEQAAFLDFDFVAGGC
Sequence of CYP2D6 (P10635 whole entry): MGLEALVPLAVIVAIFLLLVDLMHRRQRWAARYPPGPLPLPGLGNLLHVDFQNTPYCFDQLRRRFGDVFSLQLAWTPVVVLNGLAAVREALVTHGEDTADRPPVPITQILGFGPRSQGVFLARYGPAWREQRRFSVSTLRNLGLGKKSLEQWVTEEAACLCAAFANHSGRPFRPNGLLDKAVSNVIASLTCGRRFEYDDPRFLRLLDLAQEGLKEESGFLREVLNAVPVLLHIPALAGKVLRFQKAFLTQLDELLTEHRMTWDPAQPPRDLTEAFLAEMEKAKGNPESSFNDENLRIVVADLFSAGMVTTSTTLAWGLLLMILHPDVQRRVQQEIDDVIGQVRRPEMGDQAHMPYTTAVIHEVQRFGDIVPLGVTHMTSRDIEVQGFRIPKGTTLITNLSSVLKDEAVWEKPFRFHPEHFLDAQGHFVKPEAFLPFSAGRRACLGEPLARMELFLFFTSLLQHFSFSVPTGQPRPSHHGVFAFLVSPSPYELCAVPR
T3 sequence (P29597 whole entry): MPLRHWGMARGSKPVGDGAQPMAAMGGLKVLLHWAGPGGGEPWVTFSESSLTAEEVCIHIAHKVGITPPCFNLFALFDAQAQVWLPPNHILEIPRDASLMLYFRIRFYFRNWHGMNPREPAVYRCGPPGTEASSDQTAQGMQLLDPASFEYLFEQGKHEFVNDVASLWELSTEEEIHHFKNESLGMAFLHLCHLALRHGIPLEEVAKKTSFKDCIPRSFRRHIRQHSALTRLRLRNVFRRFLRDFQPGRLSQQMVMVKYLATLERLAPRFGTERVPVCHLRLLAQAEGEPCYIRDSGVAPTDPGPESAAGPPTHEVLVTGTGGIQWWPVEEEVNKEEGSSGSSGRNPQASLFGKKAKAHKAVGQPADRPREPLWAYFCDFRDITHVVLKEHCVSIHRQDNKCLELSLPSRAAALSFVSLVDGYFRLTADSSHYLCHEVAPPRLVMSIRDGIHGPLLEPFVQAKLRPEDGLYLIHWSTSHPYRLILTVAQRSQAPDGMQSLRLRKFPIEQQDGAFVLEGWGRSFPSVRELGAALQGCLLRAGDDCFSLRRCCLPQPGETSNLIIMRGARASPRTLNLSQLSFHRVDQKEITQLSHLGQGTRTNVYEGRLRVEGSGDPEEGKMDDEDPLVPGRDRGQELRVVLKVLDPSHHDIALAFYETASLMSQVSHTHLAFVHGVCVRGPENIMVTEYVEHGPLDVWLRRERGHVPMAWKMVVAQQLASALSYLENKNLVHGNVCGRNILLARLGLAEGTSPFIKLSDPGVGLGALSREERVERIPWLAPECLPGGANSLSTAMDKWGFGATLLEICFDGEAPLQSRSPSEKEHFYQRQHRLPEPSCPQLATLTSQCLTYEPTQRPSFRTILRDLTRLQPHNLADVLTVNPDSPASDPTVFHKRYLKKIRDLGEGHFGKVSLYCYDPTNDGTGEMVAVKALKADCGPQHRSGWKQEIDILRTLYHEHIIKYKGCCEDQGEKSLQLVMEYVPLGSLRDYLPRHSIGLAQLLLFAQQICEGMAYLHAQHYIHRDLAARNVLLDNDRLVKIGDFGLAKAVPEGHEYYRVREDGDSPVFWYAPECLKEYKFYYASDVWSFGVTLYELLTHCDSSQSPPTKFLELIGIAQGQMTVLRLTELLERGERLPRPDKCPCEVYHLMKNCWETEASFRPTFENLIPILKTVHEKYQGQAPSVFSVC
Sequence of CYP2C9 (P11712 whole entry): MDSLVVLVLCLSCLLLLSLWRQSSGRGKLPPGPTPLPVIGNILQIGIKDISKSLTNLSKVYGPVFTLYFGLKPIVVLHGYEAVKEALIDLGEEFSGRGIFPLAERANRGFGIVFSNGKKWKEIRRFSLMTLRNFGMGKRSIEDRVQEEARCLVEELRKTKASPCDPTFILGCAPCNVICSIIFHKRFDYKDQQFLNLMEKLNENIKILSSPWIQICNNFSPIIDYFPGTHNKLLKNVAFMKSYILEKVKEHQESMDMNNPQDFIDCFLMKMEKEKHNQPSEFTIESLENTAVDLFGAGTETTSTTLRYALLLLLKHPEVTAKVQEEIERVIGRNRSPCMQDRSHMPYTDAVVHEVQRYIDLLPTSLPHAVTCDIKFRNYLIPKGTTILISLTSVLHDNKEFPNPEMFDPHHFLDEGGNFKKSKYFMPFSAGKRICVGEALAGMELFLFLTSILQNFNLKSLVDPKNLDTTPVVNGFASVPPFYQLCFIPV

Structure (SMILES) | CYP-450 % inh. 1A2 (CYP1A2) | MTT cell viability (SHSY5Y cells) | remaining activity at 5 µM [1] | remaining activity at 5 µM [2] | remaining activity at 5 µM [3] | remaining activity at 5 µM [4] | remaining activity at 5 µM [5] | remaining activity at 5 µM [6] | remaining activity at 5 µM [7, 11] | remaining activity at 5 µM [7, 12] | remaining activity at 5 µM [8] | Mic. stability t1/2 Mouse [9] | Mic. stability t1/2 Human [10] | CYP-450 % inh. 2C9 (CYP2C9) | CYP-450 % inh. 3A4 (CYP3A4) | CYP-450 % inh. 2D6 (CYP2D6) | other results
O=C(Nc1cnn(-c2csc(C(=O)NC3COC3)c2)c1)Nc1ccccc1Cl [Compound 17, 4-(4-(3-(2-chlorophenyl)ureido)-1H-pyrazol-1-yl)-N-(oxetan-3-yl)thiophene-2-carboxamide] | 6% | 104% | 98.7% | 95.9% | 110% | 106% | 98.9% | 112% | 101% | 95.4% | 104% | 0.4 h | 1.1 h | 8% | −34% | −15% | 
O=C(Nc1cnn(-c2csc(C(=O)NC3COC3)c2)c1)Nc1c(F)cccc1Cl [Compound 25, 4-(4-(3-(2-chloro-6-fluorophenyl)ureido)-1H-pyrazol-1-yl)-N-(oxetan-3-yl)thiophene-2-carboxamide] | 36% | 102% | 104% | 89.3% | 96.5% | 81.2% | 107% | 111% | 88.2% | 94.3% | 90.3% | 1.2 h | 1.67 h | 48% | 24% | 31% | 
Cc1sc(C(=O)NC2COC2)cc1-n1cc(NC(=O)Nc2c(F)cccc2Cl)cn1 [Compound 27, 4-(4-(3-(2-chloro-6-fluorophenyl)ureido)-1H-pyrazol-1-yl)-5-methyl-N-(oxetan-3-yl)thiophene-2-carboxamide] | 22% | 111% |  |  |  |  |  |  |  |  |  | 0.95 h | 1.83 h | 33% | 16% | 1% | remaining activity at 10 µM ([1]; 10 uM): 96.9%; remaining activity at 10 µM ([2]; 10 uM): 114%; remaining activity at 10 µM ([3]; 10 uM): 76.8%; remaining activity at 10 µM ([4]; 10 uM): 104%; remaining activity at 10 µM ([5]; 10 uM): 106%; remaining activity at 10 µM ([6]; 10 uM): 92.4%; remaining activity at 10 µM [7, 11]: 97.6%; remaining activity at 10 µM [7, 12]: 103%; remaining activity at 10 µM ([8]; 10 uM): 88.5%
